Laboratory results reported in US4634782A, “7-fluoro-dihydro PGI compounds” (Hoffmann-La Roche Inc., priority 1985, dated 1987).
pIC50: −log10 of the molar value. Where a name gives a salt, the structure may show the parent alone. Read-outs that look alike come from different tables or passages of the source.

Tests used:
[1] = system: human platelet rich plasma (PRP); test: Inhibition of blood platelet aggregation in human platelet rich plasma (PRP), test of Professor Born, optical density; format: cell-based; conditions: 0.45 ml human PRP, two separate tests, two donors
Description: That the 7-fluoro prostacyclins are potent blood platelet anti-aggregating agents can be seen when the following compounds:
were tested against PGI2 for their blood platelet anti-aggregation properties by the standard test described by Professor Born in Nature, 194 927, (1962).
In this test, the ability of the above compounds to inhibit aggregation of blood platelets in 0.45 ml of human platelet rich plasma (PRP) was measured. Aggregation was induced by the addition of any one of arachidonic acid (AA), platelet activating factor (PAF) or collagen. PAF and its synthesis is disclosed by Hirth and Barner in Helv. Chim. Acta. Vol. 65; Fasc. 3, page 1059 (1982) [Compound 1-a on page 1061]. By titration of AA, collagen and PAF at various concentrations in 0.45 ml samples of PRP, the minimum amount of AA, collagen and PAF which produces maximum blood platelet aggregation in a given sample of human platelet rich plasma (PRP) was determined. This minimum amount was used when the compounds set forth above were tested for their ability to inhibit blood platelet aggregation in samples of PRP as described below.
In carrying out the tests, various concentrations of the test compound were added to separate samples of human platelet rich plasma (PRP). To each of these samples of PRP containing a specific concentration of one of the above test compounds, there was added the minimum amount of AA, PAF, or collagen calculated above. The controls are samples of PRP containing no test compound but only the minimum amount of AA, PAF, or collagen determined above. The percent aggregation of the various samples was determined by measuring the optical density of the samples and comparing them with the optical density of the controls. This determination was made two minutes after the maximum first phase response of PAF, AA or collagen. This determination was made with freshly prepared samples of test compounds. A second determination was made in the same manner with samples of PRP two hours after the addition of AA, PAF or collagen. The IC50, the dose at which the optical density of the samples decrease to a value which is fifty (50%) percent of the value of the control was determined by the method disclosed by Professor Born's article. The IC50 values for the minimum dose were made from concentration response curve. These IC50 's were determined in two separate tests using PRP from two separate donors. The results of the minimum dose of each of the test compounds which reduces fifty (50%) percent of the aggregation of the platelets produced by any one of AA, PAF, or collagen is set forth in the following Table: […]

[2] = system: cyclic AMP in human platelet rich plasma (PRP); test: Cyclic AMP production in human blood platelets (platelet rich plasma), protein binding method of Brown et al.; format: cell-based; conditions: 0.1 mM, percent increase in cyclic AMP compared to basal (vehicle alone), pH 7.4, 22 C, read-out: Cyclic AMP Production, o/o stimulative of Basal at 0.1 mM
Description: Cyclic AMP prevents aggregation of blood platelets. Through increasing cyclic AMP, the compounds of this invention prevent blood platelet aggregation. That the compounds of this invention increase cyclic AMP can be seen from the following test.
In this test, human platelet rich plasma (PRP) was prepared by centrifugation of blood treated with 0.38% by weight sodium citrate at 180×g (times gravity) for ten minutes. The PRP ([…] containing approximately 2×10^7 platelets) is incubated for two minutes at 22 C, with and without the test compound, in a Tris-HCl buffer for ten minutes pH 7.4 containing 5.5 mM HCl, 1 mM Mg SO4, 5 mM Na2 H PO4, 120 mM NaCl, and 5.5 mM glucose in a fluid volume of […]. The reaction was terminated by placing the samples in boiling water for 3 minutes. The boiled extract was assayed for cyclic AMP by the protein binding method of Brown et al. (Biochemical Journal 121:561-562, 1971). The activity of this test compound at 0.1 mM is measured as the percent increase in cyclic AMP production compared to base 1 (vehicle alone) production.

[3] = Platelet, aggregation induced by minimum amount of arachidonic acid (AA), read-out: Aggregation IC50, AA
[4] = aggregation induced by minimum amount of platelet activating factor (PAF), read-out: Aggregation IC50, PAF
[5] = Platelet, aggregation induced by minimum amount of collagen, read-out: Aggregation IC50, Collagen

Compound | pIC50 [1, 3] | pIC50 [1, 4] | activation at 100 µM [2] [%] | pIC50 [1, 5]
CCCCC[C@H](O)CC[C@@H]1[C@@H]2[C@H](C[C@H]1O)O/C(=C\CCCC(=O)O)[C@H]2F [Compound A, (5Z,7beta,9alpha,11alpha,15S)-6,9-epoxy-7-fluoro-11,15-dihydroxy-prost-5-en-1-oic acid monosodium salt] | 7.64 | 7.82 | 998 | –
CCCC[C@H](F)[C@H](O)CC[C@@H]1[C@@H]2[C@H](C[C@H]1O)O/C(=C\CCCC(=O)O)[C@H]2F [Compound B, (5Z,7beta,9alpha,11alpha,15R,16S)-6,9-epoxy-7,16-difluoro-11,15-dihydroxy-prost-5-en-1-oic acid monosodium salt] | 7.70 | 8.22 | – | 8.22
CCCCC[C@H](O)/C=C/[C@@H]1[C@H]2C/C(=C/CCCC(=O)O)O[C@H]2C[C@H]1O [PGI2, reference compound] | 9.35 | 9.82 | – | 8.70
